Measured values reported in ChEMBL document CHEMBL3885881, “DrugMatrix”.

Species: Rattus norvegicus
Experiment: DrugMatrix - Regimen: Daily Repeat
Type: toxicity, organism-based, Sprague-Dawley
Parameters: regimen Daily Repeat, gender Male, age 6-8 weeks
Conditions: in vivo, po, route oral GAVAGE, vehicle 100 % WATER; for ABSOLUTE BASOPHIL / ABSOLUTE EOSINOPHIL / ABSOLUTE LYMPHOCYTE / ABSOLUTE MONOCYTE / ABSOLUTE SEGMENTED NEUTROPHIL / BASOPHIL / EOSINOPHIL / ERYTHROCYTE COUNT / HEMATOCRIT / HEMOGLOBIN / LEUKOCYTE COUNT / LYMPHOCYTE / MEAN CORPUSCULAR HEMOGLOBIN / MEAN CORPUSCULAR HEMOGLOBIN CONCENTRATION / MEAN CORPUSCULAR VOLUME / MONOCYTE / NEUTROPHIL / NUCLEATED RED BLOOD CELLS / PLATELET COUNT: tissue Blood; for ALANINE AMINOTRANSFERASE / ALBUMIN / ALKALINE PHOSPHATASE / ASPARTATE AMINOTRANSFERASE / BLOOD UREA NITROGEN / CARBON DIOXIDE / CHLORIDE / CHOLESTEROL / CREATINE PHOSPHOKINASE / CREATININE / GLUCOSE / LACTATE DEHYDROGENASE / LIPASE / PHOSPHORUS / POTASSIUM / SODIUM / TOTAL BILIRUBIN / TOTAL PROTEIN / URIC ACID: tissue Plasma
[1] = 0 mg/kg, 72 h, dose level Control, time 3 day
[2] = 0 mg/kg, 120 h, dose level Control, time 5 day
[3] = 39 mg/kg, 72 h, dose level Low, time 3 day

Structure (SMILES): C[C@]12Cc3c[nH]nc3C[C@@H]1CC[C@@H]1[C@@H]2CC[C@@]2(C)[C@H]1CC[C@]2(C)O [STANOZOLOL]
- ABSOLUTE BASOPHIL [1]: 0 CELLS/uL
- ABSOLUTE EOSINOPHIL [1]: 32.5 CELLS/uL
- ABSOLUTE LYMPHOCYTE [1]: 9305.83 CELLS/uL
- ABSOLUTE MONOCYTE [1]: 43.83 CELLS/uL
- ABSOLUTE SEGMENTED NEUTROPHIL [1]: 817.83 CELLS/uL
- BASOPHIL [1]: 0%
- EOSINOPHIL [1]: 0.33%
- ERYTHROCYTE COUNT [1]: 5.38 x10E6/uL
- HEMATOCRIT [1]: 33.63%
- HEMOGLOBIN [1]: 13.17 G/DL
- LEUKOCYTE COUNT [1]: 10.2 x10E3/uL
- LYMPHOCYTE [1]: 91.17%
- MEAN CORPUSCULAR HEMOGLOBIN [1]: 24.5 pg
- MEAN CORPUSCULAR HEMOGLOBIN CONCENTRATION [1]: 39.13 G/DL
- MEAN CORPUSCULAR VOLUME [1]: 62.53 fL
- MONOCYTE [1]: 0.5%
- NEUTROPHIL [1]: 8%
- NUCLEATED RED BLOOD CELLS [1]: 0.17 /100WBC
- PLATELET COUNT [1]: 858 x10E3/uL
- ALANINE AMINOTRANSFERASE [1]: 55.67 u/L
- ALBUMIN [1]: 4.07 G/DL
- ALKALINE PHOSPHATASE [1]: 337 u/L
- ASPARTATE AMINOTRANSFERASE [1]: 84 u/L
- BLOOD UREA NITROGEN [1]: 13.17 mg/dL
- CARBON DIOXIDE [1]: 34.17 mmol/L
- CHLORIDE [1]: 99.33 MEQ/L
- CHOLESTEROL [1]: 78.83 mg/dL
- CREATINE PHOSPHOKINASE [1]: 576.83 u/L
- CREATININE [1]: 0.17 mg/dL
- GLUCOSE [1]: 152.67 mg/dL
- LACTATE DEHYDROGENASE [1]: 147.83 u/L
- LIPASE [1]: 9.5 u/L
- PHOSPHORUS [1]: 10.78 mg/dL
- POTASSIUM [1]: 6.34 MEQ/L
- SODIUM [1]: 144.12 MEQ/L
- TOTAL BILIRUBIN [1]: 0.18 mg/dL
- TOTAL PROTEIN [1]: 6.08 G/DL
- URIC ACID [1]: 0.65 mg/dL
- ABSOLUTE BASOPHIL [2]: 0 CELLS/uL
- ABSOLUTE EOSINOPHIL [2]: 31.17 CELLS/uL
- ABSOLUTE LYMPHOCYTE [2]: 7918.33 CELLS/uL
- ABSOLUTE MONOCYTE [2]: 58.33 CELLS/uL
- ABSOLUTE SEGMENTED NEUTROPHIL [2]: 725.5 CELLS/uL
- BASOPHIL [2]: 0%
- EOSINOPHIL [2]: 0.33%
- ERYTHROCYTE COUNT [2]: 5.32 x10E6/uL
- HEMATOCRIT [2]: 33.53%
- HEMOGLOBIN [2]: 13.17 G/DL
- LEUKOCYTE COUNT [2]: 8.73 x10E3/uL
- LYMPHOCYTE [2]: 90.33%
- MEAN CORPUSCULAR HEMOGLOBIN [2]: 24.82 pg
- MEAN CORPUSCULAR HEMOGLOBIN CONCENTRATION [2]: 39.33 G/DL
- MEAN CORPUSCULAR VOLUME [2]: 63.12 fL
- MONOCYTE [2]: 0.67%
- NEUTROPHIL [2]: 8.67%
- NUCLEATED RED BLOOD CELLS [2]: 0 /100WBC
- PLATELET COUNT [2]: 1144.83 x10E3/uL
- ALANINE AMINOTRANSFERASE [2]: 60.5 u/L
- ALBUMIN [2]: 3.97 G/DL
- ALKALINE PHOSPHATASE [2]: 343.17 u/L
- ASPARTATE AMINOTRANSFERASE [2]: 80.83 u/L
- BLOOD UREA NITROGEN [2]: 15 mg/dL
- CARBON DIOXIDE [2]: 31 mmol/L
- CHLORIDE [2]: 99.75 MEQ/L
- CHOLESTEROL [2]: 71.5 mg/dL
- CREATINE PHOSPHOKINASE [2]: 237.17 u/L
- CREATININE [2]: 0.17 mg/dL
- GLUCOSE [2]: 137 mg/dL
- LACTATE DEHYDROGENASE [2]: 146.17 u/L
- LIPASE [2]: 11.5 u/L
- PHOSPHORUS [2]: 10.13 mg/dL
- POTASSIUM [2]: 6 MEQ/L
- SODIUM [2]: 145 MEQ/L
- TOTAL BILIRUBIN [2]: 0.13 mg/dL
- TOTAL PROTEIN [2]: 5.82 G/DL
- URIC ACID [2]: 0.62 mg/dL
- ABSOLUTE BASOPHIL [3]: 0 CELLS/uL
- ABSOLUTE EOSINOPHIL [3]: 60.33 CELLS/uL
- ABSOLUTE LYMPHOCYTE [3]: 8653.33 CELLS/uL
- ABSOLUTE MONOCYTE [3]: 60.33 CELLS/uL
- ABSOLUTE SEGMENTED NEUTROPHIL [3]: 526 CELLS/uL
- BASOPHIL [3]: 0%
- EOSINOPHIL [3]: 0.67%
- ERYTHROCYTE COUNT [3]: 5.9 x10E6/uL
- HEMATOCRIT [3]: 35.57%
- HEMOGLOBIN [3]: 13.63 G/DL
- LEUKOCYTE COUNT [3]: 9.3 x10E3/uL
- LYMPHOCYTE [3]: 93.33%
- MEAN CORPUSCULAR HEMOGLOBIN [3]: 23.13 pg
- MEAN CORPUSCULAR HEMOGLOBIN CONCENTRATION [3]: 38.33 G/DL
- MEAN CORPUSCULAR VOLUME [3]: 60.33 fL
- MONOCYTE [3]: 0.67%
- NEUTROPHIL [3]: 5.33%
- NUCLEATED RED BLOOD CELLS [3]: 0 /100WBC
- PLATELET COUNT [3]: 1025.67 x10E3/uL
- ALANINE AMINOTRANSFERASE [3]: 58 u/L
- ALBUMIN [3]: 4.17 G/DL
- ALKALINE PHOSPHATASE [3]: 448.33 u/L
- ASPARTATE AMINOTRANSFERASE [3]: 81 u/L
- BLOOD UREA NITROGEN [3]: 13.67 mg/dL
- CARBON DIOXIDE [3]: 34.67 mmol/L
- CHLORIDE [3]: 99.33 MEQ/L
- CHOLESTEROL [3]: 57.33 mg/dL
- CREATINE PHOSPHOKINASE [3]: 465.67 u/L
- CREATININE [3]: 0.14 mg/dL
- GLUCOSE [3]: 134.67 mg/dL
- LACTATE DEHYDROGENASE [3]: 171.33 u/L
- LIPASE [3]: 9 u/L
- PHOSPHORUS [3]: 11.43 mg/dL
- POTASSIUM [3]: 6.05 MEQ/L
- SODIUM [3]: 145.03 MEQ/L
- TOTAL BILIRUBIN [3]: 0.2 mg/dL
- TOTAL PROTEIN [3]: 6.13 G/DL
- URIC ACID [3]: 0.6 mg/dL
